Molecular target: T1, HIV-1 integrase multimerization (Human immunodeficiency virus type 1 group M subtype B, UniProt P12497)
T1 construct: His-tagged and FLAG-tagged integrase (donated by professor Mamuka Kvaratskhelia); gift of Prof; Mamuka Kvaratskhelia (University of Colorado Denver Anschutz Medical Campus)
Test: HTRF assay validating activators of HIV-1 integrase multimerization (in vitro binding assay)
Assay type: biochemical
Settings: His-tagged and FLAG-tagged integrase 20 nM each; time-resolved FRET; 8-point 1:3 dilution from 53.7 μM, triplicate; active when EC50 < 5 µM
Description: An assay was carried out as previously described to experimentally validate the compounds [45] identified by LBS as activators of HIV-1 integrase multimerization. Briefly, His-tagged and FLAG-tagged integrase (donated by professor Mamuka Kvaratskhelia at university of Colorado Denver Anschutz Medical Campus) were separately prepared with final concentration of 20 nM. An antibody mixture was prepared with 1.25 μg/mL of anti-6xHis-XL665 antibody (Cisbio) and 58 ng/mL of anti-FLAG-EuCryptate antibody (Cisbio), respectively, in Tris-HCl buffer. His-tagged and FLAG-tagged Integrase were mixed in 25 mM Tris-HCl (pH 7.4) buffer containing 150 mM NaCl, 2 mM MgCl2, 0.1% Nonidet P40, and 1 mg/mL BSA. 35 μL of integrase mixture was added to each well. Next, 270 nL of compounds (each in triplicate using 8-point 1:3 dilution series starting at a maximum nominal test concentration of 53.7 μM) were distributed to appropriate wells. Dimethyl sulfoxide was used as low-control, and BIB-II (donated by professor Mamuka Kvaratskhelia at university of Colorado Denver Anschutz Medical Campus) was used as high-control reference compound. After 3 h of incubation, 15 μL of antibody mixture was added to the plates. After incubation at room temperature for 2.5 h, the time-resolved fluorescence energy transfer signal was measured by the microplate reader (SpectraMax M5, Molecular Devices, LLC., San Jose, CA, USA) by exciting the plates (384 well, Corning) at 340 nm and monitoring well fluorescence at 618 nm and 671 nm with the microplate reader. All the test compounds were bought from ChemDiv (San Diego, CA, USA).

SMILES	EC50 [nM]
COc1cccc(/C=N/Nc2nc3c(=O)[nH]c(N)nc3n2C2OC(CO)C(O)C2O)c1O (stereo not shown) [Pubchem CID 135427812]	710
O=C(NN=Cc1ccccc1F)c1cc(O)c(O)c(O)c1 [compound 3656702]	4880
O=C(NNC1OC(CO)C(O)C(O)C1O)c1ccc(O)cc1 (stereo not shown) [compound 4137880]	1260
O=c1cc(-c2ccc(O)c(O)c2)oc2cc(OC3OC(CO)C(O)C(O)C3O)cc(O)c12 (stereo not shown) [compound 5291488]	3620
O=c1c(OC2OC(CO)C(O)C(O)C2O)c(-c2ccc(O)c(O)c2)oc2cc(O)cc(O)c12 (stereo not shown) [compound 5378597]	1360
O=c1c2cc(O)c(O)cc2oc2cc(O)c(OC3OC(CO)C(O)C(O)C3O)c(O)c12 (stereo not shown) [compound 46397461]	1260
COc1cccc(C=NNc2nc3c(=O)[nH]c(N)nc3n2C2OC(CO)C(O)C2O)c1O (stereo not shown) [compound 135427812]	710
